Assay results reported in PMC8617031, “Development of a BCL-xL and BCL-2 dual degrader with improved anti-leukemic activity,” (Nature Communications, 2021).
Where “and” joins values, the source holds several entries; their conditions need not be identical. Identical values can stand only once.

Legend:
His-tagged BCL-2 = biological target: T1, His-tagged BCL-2 (Homo sapiens, UniProt P10415); test: AlphaScreen competitive binary binding, BCL-2 (biotin-BIM peptide)
T1 construct: purchased Sigma-Aldrich SRP0186
Protocol: (§1) The reagents were diluted in a buffer containing 250 mM HEPES pH 7.5, 1 M NaCl, 1% BSA, and 0.05% Tween-80. His-tagged BCL-xL (0.5 nM, Cat. No. SRP0187, Sigma-Aldrich) or BCL-2 (1 nM, Cat. No. SRP0186, Sigma-Aldrich) were incubated with serial diluted 753a or 753b and 2 nM biotin-tagged BAD (biotin-[…] amino-terminal, AnaSpec, for BCL-xL) or 10 nM BIM peptides (biotin-[…] N-terminal, AnaSpec, for BCL-2) to a final volume of 40 µl in a 96-well PCR plate. […] After incubation for 2 h, 5 µl 6× His-acceptor beads (Cat. No. AL128M, PerkinElmer) were added to each well at 20 µg/ml final concentration and incubated for 1 h. Then 5 µl streptavidin-donor beads were added (Cat. No. 6760002, PerkinElmer) to each well at 20 µg/ml final concentration and incubated for 45 min. At the end of the incubation period, 17 µl of each sample was transferred in adjacent wells of 384-well proxy plate (Cat. No. 6008280, PerkinElmer). The plate was scanned using the Alpha program on Biotek’s Synergy Neo2 multimode plate reader. The inhibition constant (Ki) was calculated using the non-linear regression, one site, competitive binding, Fit Ki function on GraphPad Prism 9 software, based on experimentally determined dissociation constant (Kd) for each protein–peptide pair.

His-tagged BCL-xL = biological target: T2, His-tagged BCL-xL (Homo sapiens, UniProt Q07817); test: AlphaScreen competitive binary binding, BCL-xL (biotin-BAD peptide)
T2 construct: purchased Sigma-Aldrich SRP0187
Protocol: as §1

[1] = AlphaScreen, Supplementary Fig. 6

T2 sequence (Q07817 whole entry): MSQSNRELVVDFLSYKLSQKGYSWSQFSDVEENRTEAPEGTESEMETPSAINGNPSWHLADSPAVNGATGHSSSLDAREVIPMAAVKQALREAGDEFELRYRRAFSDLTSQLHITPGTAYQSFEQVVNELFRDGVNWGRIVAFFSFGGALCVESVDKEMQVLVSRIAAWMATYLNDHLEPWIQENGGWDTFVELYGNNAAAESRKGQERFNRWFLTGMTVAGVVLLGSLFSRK
T1 sequence (P10415 whole entry): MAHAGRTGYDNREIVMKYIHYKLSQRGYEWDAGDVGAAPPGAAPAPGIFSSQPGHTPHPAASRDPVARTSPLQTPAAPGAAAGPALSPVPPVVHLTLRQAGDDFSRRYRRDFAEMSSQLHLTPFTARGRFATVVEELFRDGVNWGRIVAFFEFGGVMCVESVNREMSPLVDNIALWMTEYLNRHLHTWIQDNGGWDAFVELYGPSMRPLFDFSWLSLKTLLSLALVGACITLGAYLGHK

Cc1ncsc1-c1ccc([C@H](C)NC(=O)[C@@H]2C[C@@H](O)CN2C(=O)[C@@H](NC(=O)CCCCCCC(=O)N2CCN(C[C@@]3(C)CCC(c4ccc(Cl)cc4)=C(CN4CCN(c5ccc(C(=O)NS(=O)(=O)c6ccc(N[C@H](CCN7CCOCC7)CSc7ccccc7)c(S(=O)(=O)C(F)(F)F)c6)cc5)CC4)C3)CC2)C(C)(C)C)cc1 [753a]
binary binding affinity to BCL-2 (in words) (His-tagged BCL-2; [1]): much weaker than that of the warhead ABT263 | Alpha signal (raw counts) (His-tagged BCL-2; BCL-2 Rep-2, 0.00488281 uM): 457099 and 452255 | Alpha signal (raw counts) (His-tagged BCL-2; BCL-2 Rep-2, plate row C, 1.25 uM): 11131 and 19293 | Alpha signal (raw counts) (His-tagged BCL-2; BCL-2 Rep-2, plate row D, 0.3125 uM): 23398 and 21436 | Alpha signal (raw counts) (His-tagged BCL-2; BCL-2 Rep-2, plate row E, 0.078125 uM): 28167 and 26661 | Alpha signal (raw counts) (His-tagged BCL-2; BCL-2 Rep-2, plate row F, 0.0195312 uM): 165828 and 146355 | Alpha signal (raw counts) (His-tagged BCL-2; BCL-2 Rep-2, plate row H, 0.0012207 uM): 607122 and 550701 | Alpha signal (raw counts) (His-tagged BCL-2; BCL-2 Rep-2, plate row I, 0.000305176 uM): 723572 and 761986 | Alpha signal (raw counts) (His-tagged BCL-2; BCL-2 Rep-2, plate row J, 7.62939e-5 uM): 723255 and 767572 | Alpha signal (raw counts) (His-tagged BCL-2; BCL-2 Rep-2, plate row K, 1.90735e-5 uM): 723831 and 708342 | binary binding affinity to BCL-xL (in words) (His-tagged BCL-xL; [1]): much weaker than that of the warhead ABT263 | IC50 (His-tagged BCL-xL; BCL-xL Rep-1): 39 nM | Ki (His-tagged BCL-xL; BCL-xL Rep-1): 1.75 nM | Alpha signal (raw counts) (His-tagged BCL-xL; BCL-xL Rep-1, plate row B, 5 uM): 27085 and 24738 | Alpha signal (raw counts) (His-tagged BCL-xL; BCL-xL Rep-1, plate row C, 1.25 uM): 28062 and 40230 | Alpha signal (raw counts) (His-tagged BCL-xL; BCL-xL Rep-1, plate row D, 0.3125 uM): 145116 and 115021 | Alpha signal (raw counts) (His-tagged BCL-xL; BCL-xL Rep-1, plate row E, 0.078125 uM): 433630 and 441172 | Alpha signal (raw counts) (His-tagged BCL-xL; BCL-xL Rep-1, plate row F, 0.0195312 uM): 726417 and 752069 | Alpha signal (raw counts) (His-tagged BCL-xL; BCL-xL Rep-1, plate row G, 0.00488281 uM): 950071 and 945138 | Alpha signal (raw counts) (His-tagged BCL-xL; BCL-xL Rep-1, plate row H, 0.0012207 uM): 1050463 and 1074380 | Alpha signal (raw counts) (His-tagged BCL-xL; BCL-xL Rep-1, plate row I, 0.000305176 uM): 1307721 and 1309993 | Alpha signal (raw counts) (His-tagged BCL-xL; BCL-xL Rep-1, plate row J, 7.62939e-5 uM): 1113170 and 1173569 | Alpha signal (raw counts) (His-tagged BCL-xL; BCL-xL Rep-1, plate row K, 1.90735e-5 uM): 1107772 and 1259986 | Alpha signal (raw counts) (His-tagged BCL-xL; BCL-xL Rep-2, 7.62939e-5 uM): 1188088 and 1161046 | Alpha signal (raw counts) (His-tagged BCL-xL; BCL-xL Rep-2, plate row B, 5 uM): 24343 and 23695 | Alpha signal (raw counts) (His-tagged BCL-xL; BCL-xL Rep-2, plate row C, 1.25 uM): 25479 and 38889 | Alpha signal (raw counts) (His-tagged BCL-xL; BCL-xL Rep-2, plate row D, 0.3125 uM): 95317 and 147841 | Alpha signal (raw counts) (His-tagged BCL-xL; BCL-xL Rep-2, plate row E, 0.078125 uM): 336804 and 343845 | Alpha signal (raw counts) (His-tagged BCL-xL; BCL-xL Rep-2, plate row F, 0.0195312 uM): 767361 and 853215 | Alpha signal (raw counts) (His-tagged BCL-xL; BCL-xL Rep-2, plate row G, 0.00488281 uM): 937707 and 1041403 | Alpha signal (raw counts) (His-tagged BCL-xL; BCL-xL Rep-2, plate row H, 0.0012207 uM): 1127054 and 1147040 | Alpha signal (raw counts) (His-tagged BCL-xL; BCL-xL Rep-2, plate row I, 0.000305176 uM): 1272095 and 1259132 | Alpha signal (raw counts) (His-tagged BCL-xL; BCL-xL Rep-2, plate row K, 1.90735e-5 uM): 1255062 and 1549086 | Ki (His-tagged BCL-xL; BCL-xL, mean of the two replicate values (line without label)): 1.52 nM | Ki (His-tagged BCL-xL; BCL-xL, second value (line without label below Rep-1, apparently Rep-2)): 1.29 nM
